# pIC50, pKd, pKi: −log10 of the molar value.
# Tests used:
# [1] = target: T1, TRPV1 expressing neurons (rat trigeminal neurons) (Rattus norvegicus, UniProt O35433); assay: Ca2+ fluorescence measurements in cultured rat trigeminal ganglia; type: cell-based; conditions: 0.1 μM capsaicin, mean and 95% fiducial limits, read-out: IC50 inhibiting capsaicin-evoked [Ca2+]i mobilization
# T1 construct: Two-days old Newborn rats were terminally anaesthetized and decapitated; Trigeminal ganglia were removed; endogenous in cells; host or cells: primary cultured trigeminal ganglion neurons from newborn Sprague-Dawley rats
# T1 sequence (O35433 whole entry): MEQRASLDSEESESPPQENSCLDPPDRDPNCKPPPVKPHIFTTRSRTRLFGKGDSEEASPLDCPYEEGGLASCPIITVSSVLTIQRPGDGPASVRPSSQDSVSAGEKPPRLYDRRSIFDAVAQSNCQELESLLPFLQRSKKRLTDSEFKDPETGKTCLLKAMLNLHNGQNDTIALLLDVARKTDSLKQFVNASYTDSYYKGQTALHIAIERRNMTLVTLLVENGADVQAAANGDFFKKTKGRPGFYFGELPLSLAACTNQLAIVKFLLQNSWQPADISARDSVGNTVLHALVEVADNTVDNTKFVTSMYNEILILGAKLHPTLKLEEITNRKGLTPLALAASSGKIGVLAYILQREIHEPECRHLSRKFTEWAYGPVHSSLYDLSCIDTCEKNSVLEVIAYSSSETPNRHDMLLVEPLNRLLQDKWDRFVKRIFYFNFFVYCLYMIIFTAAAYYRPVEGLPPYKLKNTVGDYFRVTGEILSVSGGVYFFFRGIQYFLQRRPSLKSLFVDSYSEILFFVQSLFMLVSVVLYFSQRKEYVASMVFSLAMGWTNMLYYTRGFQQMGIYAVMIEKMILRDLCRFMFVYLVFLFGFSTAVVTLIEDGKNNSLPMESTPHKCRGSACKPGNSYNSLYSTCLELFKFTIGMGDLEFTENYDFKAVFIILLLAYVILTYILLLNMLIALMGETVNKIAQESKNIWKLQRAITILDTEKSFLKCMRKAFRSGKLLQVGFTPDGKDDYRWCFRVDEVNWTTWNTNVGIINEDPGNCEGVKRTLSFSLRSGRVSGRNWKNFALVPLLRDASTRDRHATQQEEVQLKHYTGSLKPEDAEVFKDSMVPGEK
# Procedure: Ca^2+ Fluorescence Measurements in Cultured rat Trigeminal Ganglia
# Two-days old Newborn rats were terminally anaesthetized and decapitated. Trigeminal ganglia were removed and rapidly placed in a cold phosphate buffered solution (PBS) before being transferred to collagenase/dispase (1 mg/ml dissolved in Ca^2+- Mg^2+-free PBS) for 35 min at 37° C.^7 After the enzymatic treatment the ganglia were rinsed three times with Ca^2+- Mg^2+-free PBS and then placed in 2 ml of cold DMEM supplemented with 10% fetal bovine serum (FBS, heat inactivated), 2 mM L-glutamine, 100 μ/ml penicillin and 100 μg/ml streptomycin. The ganglia were dissociated into single cells by several passages through a series of syringe needles (23G down to 25G). Finally, the medium and the ganglia cells were sieved through a 40 μm filter to remove debris and topped up with 8 ml of DMEM medium and centrifuged (200×g for 5 min). The final cell pellet was re-suspended in DMEM medium [supplemented with 100 ng/ml mouse Nerve Growth Factor (mouse-NGF-7S) and cytosine-β-D-arabinofuranoside free base (ARA-C) 2.5 μM]. Cells were plated on poly-L-lysine-(8.3 μM) and laminin-(5 μM) coated 25 mm glass cover slips and kept for 5 to 8 days at 37° C. in a humidified incubator gassed with 5% CO2 and air. Plated neurons were loaded with Fura-2-AM-ester (3 μM) in Ca^2+ buffer solution of the following composition (mM): CaCl2 1.4, KCl 5.4, MgSO4 0.4, NaCl 135, D-glucose 5, HEPES 10 with BSA (0.1%), at pH 7.4, for 40 min at 37° C. The plated neurons were then washed twice with the Ca^2+ buffer solution and transferred to a chamber on the stage of Nikon eclipse TE300 microscope. Fura-2-AM-ester was excited at […] to indicate relative [Ca^2+]i changes by the F340/F380 ratio recorded with a dynamic image analysis system (Laboratory Automation 2.0, RCS, Florence, Italy). After transferring the plated neurons to the chamber, they were allowed (at least 10 min) to attain a stable fluorescence before beginning the experiment. A calibration curve was performed using buffer containing Fura-2-AM-ester and determinant concentrations of free Ca^2+.
# The results are expressed as mean and 95% fiducial limits.
# [2] = target: T2, TRPV1 expressed in rat spinal cord (Rattus norvegicus, UniProt O35433); assay: Radioligand binding assay, [3H]-RTX, rat spinal cord membranes; conditions: 37° C. 60 min, range in brackets; for pKi: [3H]RTX 0.4 nM, read-out: Ki value, competition binding of [3H]-RTX
# T2 construct: the spinal cord was removed and disrupted using a Polytron tissue homogenizer; from tissue; host or cells: spinal cord membranes of male Sprague-Dawley rats
# T2 sequence (O35433 whole entry): as above
# Procedure: Radioligand Binding Assay
# Male Sprague-Dawley rats with body weight between 250 and 350 g at the time for testing were used. For binding assays rats were sacrificed by decapitation under anesthesia and the spinal cord was removed and disrupted using a Polytron tissue homogenizer in ice cold buffer containing 5 mM KCl, 5.8 mM NaCl, 0.75 mM CaCl2, 2 mM MgCl2, 320 mM sucrose, 10 mM Hepes, pH 8.6.^5 The homogenized tissue was centrifuged at 1000×g for 10 min at 4° C. and the supernatant was centrifuged again at 35000×g for 30 min at 4° C. (Beckman Avanti J25). The pellet was resuspended in the same buffer described above and used in binding experiments. In saturation experiments, 150 μg protein/sample from membrane suspensions were incubated with [^3H]-resiniferatoxin ([^3H]-RTX) (0.003-3 nM) in the assay buffer containing 0.25 mg/ml fatty acid-free bovine serum albumin at 37° C. for 60 min. In competition experiments, the membranes were incubated at 37° C. for 60 min with [^3H]RTX (0.4 nM) and increasing concentrations of the examined compounds in the range from 0.1 nM to 3 μM. Non-specific binding was defined in the presence of 1 μM RTX. After incubation, the reaction mixture was cooled at 0° C. and incubated with bovine α1-acid glycoprotein (200 μg per tube) for 15 min to reduce non-specific RTX binding. Membrane-bound RTX was separated from free RTX through centrifugation of the samples at 18500×g for 15 min. The tip of the microcentrifuge tube containing the pellet was cut off and radioactivity was determined by scintillation counting (Packard 2500 TR). Protein concentration was determined according to a Bio-Rad method with bovine serum albumin as reference standard (Bradford, 1976). Saturation and competition studies were analysed with the program Ligand.^6
# [3] = tested on: capsaicin-induced tactile allodynia; assay: Capsaicin-induced secondary allodynia in rat; type: in vivo; conditions: 10 mg/kg orally 2 hours prior to capsaicin (20 nmols/50 μl/paw), 90 min after capsaicin challenge
# Procedure: Capsaicin-induced Secondary Allodynia in Rat
# Capsaicin (20 nmols/50 μl/paw) was injected in the plantar surface of the glabrous skin of the right paw of rats anesthetized with diethyl ether (Chaplan et al., 1994). Compound Id was orally administered (10 mg/kg) 2 hours prior to capsaicin injection. Tactile allodynia was evaluated 90 min after capsaicin challenge.
Compound,pIC50 [1],pKi [2],"pKd ([2]; [3H]-RTX 0.003-3 nM, read-out: KD value, saturation curve of [3H]-RTX)",preventive effect against the pro-allodinic effect of capsaicin [3] [%]
"CC1=C(/C=C/C(=O)Nc2cccc3cnccc23)C(C)(C)CCC1Oc1ccccc1 (stereo not shown) [Ic, (2E)-N-(isoquinolin-5-yl)-3-(2,6,6-trimethyl-3-phenoxycyclohex-1-enyl)acrylamide]",8.67,8.31,–,–
"CC1=C(/C=C/C(=O)Nc2cccc3cnccc23)C(C)(C)CCC1Oc1cccc(F)c1 (stereo not shown) [If, (2E)-3-(3-(3-fluorophenoxy)-2,6,6-trimethylcyclohex-1-enyl)-N-(isoquinolin-5-yl)acrylamide]",9.42,8.09,–,–
"CC1=C(/C=C/C(=O)Nc2cccc3cnccc23)C(C)(C)CCC1Oc1ccc(F)c(F)c1 (stereo not shown) [Ig, (2E)-3-(3-(3,4-difluorophenoxy)-2,6,6-trimethylcyclohex-1-enyl)-N-(isoquinolin-5-yl)acrylamide]",9.19,7.99,–,–
"C=C(C)[C@]12C[C@@H](C)[C@@]34O[C@](Cc5ccccc5)(O[C@@H]1[C@@H]3C=C(COC(=O)Cc1ccc(O)c(OC)c1)C[C@]1(O)C(=O)C(C)=C[C@@H]41)O2 [[^3H]-RTX, [^3H]-resiniferatoxin, reference compound]",–,–,9.68,–
"CC1=C(/C=C/C(=O)Nc2cccc3cnccc23)C(C)(C)CCC1 [Ia, (2E)-N-(isoquinolin-5-yl)-3-(2,6,6-trimethylcyclohex-1-enyl)acrylamide]",7.36,7.18,–,–
"CC1=C(/C=C/C(=O)Nc2cccc3cnccc23)C(C)(C)CCC1Oc1ccc(F)cc1 (stereo not shown) [Ie, (2E)-3-(3-(4-fluorophenoxy)-2,6,6-trimethylcyclohex-1-enyl)-N-(isoquinolin-5-yl)acrylamide]",8.28,7.83,–,–
"COC1CCC(C)(C)C(/C=C/C(=O)Nc2cccc3cnccc23)=C1C (stereo not shown) [Ib, (2E)-N-(isoquinolin-5-yl)-3-(3-methoxy-2,6,6-trimethylcyclohex-1-enyl)acrylamide]",7.55,7.58,–,–
"CC1=C(/C=C/C(=O)Nc2cccc3cnccc23)C(C)(C)CCC1Oc1ccc(Cl)cc1 (stereo not shown) [Compound Id, (2E)-3-(3-(4-chlorophenoxy)-2,6,6-trimethylcyclohex-1-enyl)-N-(isoquinolin-5-yl)acrylamide]",7.74,7.57,–,54

# Source: patent US7919624B2, “VR1 vanilloid receptor antagonists with a iononic substructure” (Pharmeste S.R.L., priority 2006, dated 2011)
